From patent US12037333B2, “Pyridopyrazine and pyridotriazine inhibitors of influenza virus replication” (priority 2018, dated 2024) come the findings set out here.

For the first test, the system named is Influenza type B (cell culture adapted strain B/Lee/40, ATCC VR-1535). The test is described as follows: Influenza antiviral assay: inhibition of virus-induced cytopathic effects (CPE) in MDCK cells, XTT dye reduction. Particulars: Influenza B virus, MDCK, 96 h, strain B/Lee/40, MDCK cells, CPE inhibition at 4 days. The class given is cell-based. In general terms: Damage to the host cells serves as the signal in cytopathic effect assays.
Take `O=C1c2c(O)c(=O)ccn2N(C23c4ccccc4CC2Cc2c3ccc(F)c2F)CN1CC1CCOCC1` (stereo not drawn) [Compound A15, 1-(1,2-Difluoro-9a,10-dihydro-9H-indeno[1,2-a]inden-4b-yl)-5-hydroxy-3-(tetrahydro-pyran-4-ylmethyl)-2,3-dihydro-1H-pyrido[2,1-f][1,2,4]triazine-4,6-dione]: the EC50 (as a rule, the midpoint of the concentration-response curve) is under 125 nM.
As for `O=C1c2c(O)c(=O)ccn2N(C23c4ccccc4CC2Cc2c3ccc(F)c2F)CN1CCc1cccc(F)c1` (stereo not drawn) [Compound A27, 1-(1,2-difluoro-9a,10-dihydroindeno[1,2-a]inden-4b(9H)-yl)-3-(3-fluorophenethyl)-5-hydroxy-2,3-dihydro-1H-pyrido[2,1-f][1,2,4]triazine-4,6-dione], the EC50 fell in the range of 250 to 375 nM.
Molecule `O=C1c2c(O)c(=O)ccn2N(C23c4ccccc4CC2Cc2c3ccc(F)c2F)CN1CCF` (stereo not drawn) [Compound A74] yielded an EC50 of under 125 nM.
Same read-out and setting: then `CC1N(CCF)C(=O)c2c(O)c(=O)ccn2N1C12c3ccccc3CC1Cc1c(Cl)cccc12` (stereo not drawn) [Compound A115], with 250 to 375 nM.
The same measure, in the same setting: in the case of `CC(C)CN1CN(C23c4ccccc4CC2Cc2c3ccc(F)c2F)n2ccc(=O)c(O)c2C1=O` (stereo not drawn) [Compound A149] it was under 125 nM.
`CN1CN(C23c4ccccc4CC2Cc2cccc(F)c23)n2ccc(=O)c(O)c2C1=O` (stereo not drawn) [Compound A145] had a concentration for a half-maximal effect (EC50) of under 125 nM.
On to `CCN1CN(C23c4ccccc4CC2(CC)Cc2ccccc23)n2ccc(=O)c(O)c2C1=O` (stereo not drawn) [Compound A157], for which the EC50 is 125 to 250 nM.
On the same count and under the same terms, in the case of `CCN1CN(C23c4ccccc4CC2Cc2c3ccc(F)c2Cl)n2ccc(=O)c(O)c2C1=O` (stereo not drawn) [Compound A47] it was 125 to 250 nM.
In turn, `CC(C)CN1C(=O)c2c(O)c(=O)ccn2N(C23c4ccccc4CC2Cc2c(F)cccc23)C1C` (stereo not drawn) [Compound A117] displayed a 50% effective concentration (EC50) of 250 to 375 nM.
Consider `CC1N(C2CCC2)C(=O)c2c(O)c(=O)ccn2N1C12c3ccccc3CC1Cc1c(F)cccc12` (stereo not drawn) [Compound A141], for which the EC50 was in the range of 250 to 375 nM.
`CN1CN(C23c4ccccc4CC2(C)Cc2cc(F)ccc23)n2ccc(=O)c(O)c2C1=O` (stereo not drawn) [Compound A126] returned an EC50 of under 125 nM.
Still for that read-out and setting: in the case of `CC1N(C)C(=O)c2c(O)c(=O)ccn2N1C12c3ccccc3CC1Cc1c2ccc(F)c1F` (stereo not drawn) [Compound A64] it was under 125 nM; in that of `O=C1c2c(O)c(=O)ccn2N(C23c4ccccc4CC2Cc2c3ccc(F)c2F)CN1Cc1cccc(F)c1` (stereo not drawn) [Compound A26, 1-(1,2-difluoro-9a,10-dihydroindeno[1,2-a]inden-4b(9H)-yl)-3-(3-fluorobenzyl)-5-hydroxy-2,3-dihydro-1H-pyrido[2,1-f][1,2,4]triazine-4,6-dione], 250 to 375 nM; in that of `O=C1c2c(O)c(=O)ccn2N(C23c4ccccc4CC2Cc2c3ccc(F)c2F)CN1CCc1ccccc1` (stereo not drawn) [Compound A25, 1-(1,2-difluoro-9a,10-dihydroindeno[1,2-a]inden-4b(9H)-yl)-5-hydroxy-3-phenethyl-2,3-dihydro-1H-pyrido[2,1-f][1,2,4]triazine-4,6-dione], 375 to 500 nM.
Same read-out and setting: in the case of `CCN1CN(C23c4ccccc4CC2(C)Cc2ccccc23)n2ccc(=O)c(O)c2C1=O` (stereo not drawn) [Compound A147] it was 125 to 250 nM; in that of `CN1CN(C23c4cc(F)ccc4CC2Cc2c(Cl)cccc23)n2ccc(=O)c(O)c2C1=O` (stereo not drawn) [Compound A96], under 125 nM.
The molecule `CN1CN(C23c4ccccc4CC2Cc2c3ccc(F)c2Cl)n2ccc(=O)c(O)c2C1=O` (stereo not drawn) [Compound A46, 1-(1-Chloro-2-fluoro-9a,10-dihydroindeno[1,2-a]inden-4b(9H)-yl)-5-hydroxy-3-methyl-2,3-dihydro-1H-pyrido[2,1-f][1,2,4]triazine-4,6-dione] came in with an EC50 of under 125 nM.
In the case of `CN1CN(C23c4ccccc4CC2(C)Cc2ccccc23)n2ccc(=O)c(O)c2C1=O` (stereo not drawn) [Compound A150], the EC50 was under 125 nM.
`O=C1c2c(O)c(=O)ccn2N(C23c4ccccc4CC2Cc2cc(F)c(F)cc23)CN1CC1CCOCC1` (stereo not drawn) [Compound A16, 1-(2,3-Difluoro-9a,10-dihydro-9H-indeno[1,2-a]inden-4b-yl)-5-hydroxy-3-(tetrahydro-pyran-4-ylmethyl)-2,3-dihydro-1H-pyrido[2,1-f][1,2,4]triazine-4,6-dione] came in with an EC50 of under 125 nM.
In turn, `O=C1c2c(O)c(=O)ccn2N(C23c4ccccc4CC2Cc2c(F)cccc23)CN1C1CC1` (stereo not drawn) [Compound A65] displayed a concentration giving a half-maximal response (EC50) of under 125 nM.
Still for that read-out and setting: in the case of `CCCN1CN(C23c4ccccc4CC2Cc2c3ccc(F)c2F)n2ccc(=O)c(O)c2C1=O` (stereo not drawn) [Compound A148] it was 125 to 250 nM; in that of `O=C1c2c(O)c(=O)ccn2N(C23c4ccccc4CC2Cc2c(F)cccc23)CN1CCCF` (stereo not drawn) [Compound A79], under 125 nM.
The same measure, in the same setting: then `O=C1c2c(O)c(=O)ccn2N(C23c4ccccc4CC2Cc2cc(F)c(F)cc23)CN1CC1CC1` (stereo not drawn) [Compound A13, 3-Cyclopropylmethyl-1-(2,3-difluoro-9a,10-dihydro-9H-indeno[1,2-a]inden-4b-yl)-5-hydroxy-2,3-dihydro-1H-pyrido[2,1-f][1,2,4]triazine-4,6-dione], with under 125 nM; and `CCOC12Cc3ccccc3C1(N1CN(C)C(=O)c3c(O)c(=O)ccn31)c1ccccc1C2` (stereo not drawn) [Compound A57], with under 125 nM.
As for `CN1CN(C23C(=Cc4ccccc42)Cc2ccccc23)n2ccc(=O)c(O)c2C1=O` (stereo not drawn) [Compound A30, 5-hydroxy-1-(indeno[1,2-a]inden-4b(9H)-yl)-3-methyl-2,3-dihydro-1H-pyrido[2,1-f][1,2,4]triazine-4,6-dione], the EC50 lay within 375 to 500 nM.
Same read-out and setting: then `O=C1c2c(O)c(=O)ccn2N(C23c4ccccc4CC2Cc2c3ccc(F)c2F)CN1CC1CC1` (stereo not drawn) [Compound A9, 3-Cyclopropylmethyl-1-(1,2-difluoro-9a,10-dihydro-9H-indeno[1,2-a]inden-4b-yl)-5-hydroxy-2,3-dihydro-1H-pyrido[2,1-f][1,2,4]triazine-4,6-dione], with 125 to 250 nM; and `COCCN1CN(C23c4ccccc4CC2Cc2c(Cl)cccc23)n2ccc(=O)c(O)c2C1=O` (stereo not drawn) [Compound A101], with under 125 nM; and `O=C1c2c(O)c(=O)ccn2N(C23c4ccccc4CC2Cc2c3ccc(F)c2F)CN1CC1CCCCO1` (stereo not drawn) [Compound A131], with 125 to 250 nM.
The same measure, in the same setting: then `COCCN1CN(C23c4ccccc4CC2Cc2c(F)cccc23)n2ccc(=O)c(O)c2C1=O` (stereo not drawn) [Compound A69], with under 125 nM; and `O=C1c2c(O)c(=O)ccn2N(C23c4cccc(F)c4CC2Cc2c(F)cccc23)CN1CC(F)F` (stereo not drawn) [Compound A71], with under 125 nM.
Same read-out and setting: then `O=C1c2c(O)c(=O)ccn2N(C23c4ccccc4CC2Cc2ccccc23)CN1CC1CC1` (stereo not drawn) [Compound A2, 3-Cyclopropylmethyl-1-(9a,10-dihydro-9H-indeno[1,2-a]inden-4b-yl)-5-hydroxy-2,3-dihydro-1H-pyrido[2,1-f][1,2,4]triazine-4,6-dione], with over 500 nM; and `COCCN1C(=O)c2c(O)c(=O)ccn2N(C23c4ccccc4CC2Cc2c3ccc(F)c2F)C1C` (stereo not drawn) [Compound A113], with 125 to 250 nM; and `O=C1c2c(O)c(=O)ccn2N(C23c4ccccc4CC2Cc2c(F)cccc23)CN1CC1CCCCO1` (stereo not drawn) [Compound A133], with 125 to 250 nM.
The molecule `CCN1CN(C23c4ccccc4CC2(OC)Cc2ccccc23)n2ccc(=O)c(O)c2C1=O` (stereo not drawn) [Compound A152] displayed an EC50 of 125 to 250 nM.
Regarding `CN1CN(C23c4ccccc4CC2(C(F)F)Cc2ccccc23)n2ccc(=O)c(O)c2C1=O` (stereo not drawn) [Compound A63], the EC50 was under 125 nM.
The same measure, in the same setting: then `O=C1c2c(O)c(=O)ccn2N(C23c4ccccc4CC2Cc2ccccc23)CN1CCOc1ccccc1` (stereo not drawn) [Compound A7, 1-(9a,10-Dihydro-9H-indeno[1,2-a]inden-4b-yl)-5-hydroxy-3-(2-phenoxy-ethyl)-2,3-dihydro-1H-pyrido[2,1-t][1,2,4]triazine-4,6-dione], with under 125 nM; and `CCN1CN(C23c4ccccc4CC2Cc2c3ccc(Cl)c2Cl)n2ccc(=O)c(O)c2C1=O` (stereo not drawn) [Compound A161], with under 125 nM; and `O=C1c2c(O)c(=O)ccn2N(C23c4ccccc4CC2Cc2c(Cl)cccc23)CN1CC1CC1` (stereo not drawn) [Compound A108], with 250 to 375 nM.
The same measure, in the same setting: then `CCN1CN(C23c4ccccc4CC2Cc2cc(F)c(F)cc23)n2ccc(=O)c(O)c2C1=O` (stereo not drawn) [Compound A10, 1-(2,3-Difluoro-9a,10-dihydro-9H-indeno[1,2-a]inden-4b-yl)-3-ethyl-5-hydroxy-2,3-dihydro-1H-pyrido[2,1-f][1,2,4]triazine-4,6-dione], with over 500 nM; and `O=C1c2c(O)c(=O)ccn2N(C23c4ccccc4CC2Cc2c3ccc(F)c2F)CN1CC1CCCC1` (stereo not drawn) [Compound A100], with 250 to 375 nM; and `O=C1c2c(O)c(=O)ccn2N(C23c4ccccc4CC2Cc2c3ccc(F)c2F)CN1C1CCC1` (stereo not drawn) [Compound A92, 3-Cyclobutyl-1-(1,2-difluoro-9a,10-dihydroindeno[1,2-a]inden-4b(9H)-yl)-5-hydroxy-2,3-dihydro-1H-pyrido[2,1-f][1,2,4]triazine-4,6-dione], with 250 to 375 nM.
The same measure, in the same setting: then `CN1CN(C23c4cc(F)c(F)cc4CC2Cc2cc(F)c(F)cc23)n2ccc(=O)c(O)c2C1=O` (stereo not drawn) [Compound A8, 5-Hydroxy-3-methyl-1-(2,3,6,7-tetrafluoro-9a,10-dihydro-9H-indeno[1,2-a]inden-4b-yl)-2,3-dihydro-1H-pyrido[2,1-f][1,2,4]triazine-4,6-dione], with over 500 nM; and `O=C1c2c(O)c(=O)ccn2N(C23c4ccccc4CC2Cc2cc(F)c(F)cc23)CN1CCc1ccc(F)cc1` (stereo not drawn) [Compound A29, 1-(2,3-difluoro-9a,10-dihydroindeno[1,2-a]inden-4b(9H)-yl)-3-(4-fluorophenethyl)-5-hydroxy-2,3-dihydro-1H-pyrido[2,1-f][1,2,4]triazine-4,6-dione], with 250 to 375 nM.

The same test, now with this note: strain B/Lee/40, MDCK cells, CPE inhibition at 4 days.
Turning to `CCN1CN(C23c4cccc(F)c4CC2Cc2c(F)cccc23)n2ccc(=O)c(O)c2C1=O` (stereo not drawn) [Compound A43], the EC50 was under 125 nM.
Still for that read-out and setting: in the case of `CC(CCN1CN(C23c4ccccc4CC2Cc2ccccc23)n2ccc(=O)c(O)c2C1=O)c1ccccc1` (stereo not drawn) [Compound A33] it was over 500 nM.
